Values of other authors, collected in article PMC7327225 (Hepatology Communications, 2020).

System: β1‐containing AMPK trimers
Settings: explains failure to activate AMPK in muscle

## O=C(O)c1c[nH]c2cc(Cl)c(-c3ccc(C4(O)CCC4)cc3)cc12 [PF‐06409577]
  AMPK isoform selectivity: selectivity toward β1‐containing AMPK trimers
